# Entries after “also recorded” stand apart in the source; their conditions may differ. Structures can show the parent of a compound that is named as a salt.
# Legend:
# [1] = system: mice; assay: Interaction with oxotremorine; assay type: in vivo, mouse; conditions: i.p.
# Procedure: CRL 41 153 is administered to groups of 6 mice 0.5 hour before the intraperitoneal injection of 0.5 mg/kg of oxotremorine.
# [2] = system: CNS; assay: Complementary tests by oral (gastric) administration; assay type: in vivo
# [3] = system: nigrostriatal dopaminergic system; assay: Interaction with alpha-methyltyrosine on stereotypies (difference from amphetamine); conditions: α-methyltyrosine (catecholamine synthesis blocked)
# [4] = system: mice; assay: Four plate test, traction and electric shock; assay type: in vivo, mouse; conditions: i.p.
# Procedure: The test is performed on groups of 10 mice 30 minutes after the administration of CRL 41 153.
# [5] = system: rats; assay: Overall behavior and reactivities in rats; assay type: in vivo, rat; conditions: i.p.
# Procedure: (§1) In the neuropsychopharmacological study which follows, a solution of CRL 41 153 in distilled water (pH 1.5) was administered intraperitoneally in a volume of 20 ml/kg to male mice and 5 ml/kg to male rats.
# (§2) Groups of three animals are observed before and then 0.25 hour, 0.50 hour, 1 hour, 2 hours, 3 hours and 24 hours after the administration of CRL 41 153.
# [6] = system: mice; assay: Motility reduced by habituation to the enclosure; assay type: in vivo, mouse; conditions: i.p.
# Procedure: After they have stayed In the actimeters for 18 hours, (he mice (6 per dose, 12 control animals) receive CRL 41 153. They are immediately returned to their respective enclosures and, half an hour later, their motility is recorded for 30 minutes.
# [7] = system: mice; assay: Overall behavior and reactivities in mice; assay type: in vivo, mouse; conditions: i.p.
# Procedure: as §1, §2
# [8] = system: mice; assay: Asphyxiant anoxia (gallamine triiodoethylate); assay type: in vivo, mouse; conditions: i.p., curarizing agent
# Procedure: Groups of 10 mice receive CRL 41 153 half an hour before the intraperitoneal administration of 32 mg/kg of gallamine triiodoethylate (reference curarizing agent).
# [9] = system: CNS; assay: Neuropsychopharmacological profile as a whole; assay type: in vivo, mice and rats
# Procedure: as §1
# [10] = system: male mice; assay: Acute toxicity by intraperitoneal administration; assay type: in vivo, mouse; conditions: i.p.
# Procedure: as §1
# [11] = system: mice; assay: Spontaneous motility; assay type: in vivo, mouse; conditions: i.p.
# Procedure: 0.5 hour after they have received CRL 41 153, the mice (6 per dose, 12 control animals) are placed in an actimeter, where their motility is recorded for 30 minutes.
# [12] = system: rats; assay: Interaction with apomorphine in rats; assay type: in vivo, rat; conditions: i.p.
# Procedure: CRL 41 153 is administered to groups of 6 rats 0.5 hour before the subcutaneous injection of 0.5 mg/kg of apomorphine.
# [13] = system: rats; assay: Interaction with amphetamine; assay type: in vivo, rat; conditions: i.p.
# Procedure: Amphetamine (2 mg/kg) is injected intraperitoneally into groups of 6 rats 30 minutes after the administration of CRL 41 153. […] 4 mg/kg and 16 mg/kg, CRL 41 153 potentiates the intensity and duration of the stereotypies induced by amphetamine.
# [14] = system: mice; assay: Interaction with apomorphine in mice; assay type: in vivo, mouse; conditions: i.p.
# Procedure: Groups of 6 mice receive CRL 41 153 0.5 hour before the subcutaneous injection of 1 or 16 mg/kg of apomorphine.
# [15] = system: mice; assay: Motility reduced by hypoxic aggression; assay type: in vivo, mouse; conditions: i.p.
# Procedure: Half an hour after they have received CRL 41 153, the mice (10 per dose, 20 control animals) are subjected to acute hypobaric anoxia [pressure reduction of 600 mm Hg (i.e. about 8×10^4 Pa) in 90 seconds; release of vacuum in 45 seconds] and are then placed in an actimeter, where their motility is recorded for 10 minutes.
# [16] = system: dogs; assay: Cardiovascular study in anesthetized dogs; assay type: in vivo, dog; conditions: anesthetized dogs
# How it was run: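 Measurements: blood pressure, heart rate, femoral and vertebral arterial flow, rectal temperature, skin colour, and for CRL 41 194 bile colour via bile-duct catheter. Doses rose stepwise 0.1–10 mg/kg intraduodenally in solution under nembutal anaesthesia; two dogs got CRL 41 194, four CRL 41 221.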
# [17] = system: mice; assay: Interaction with barbital; assay type: in vivo, mouse; conditions: i.p., barbital 220 mg/kg
# Procedure: Half an hour after the administration of CRL 41 153, groups of 10 mice receive an intraperitoneal injection of barbital (220 mg/kg).
# [18] = pH of solutions in distilled water; assay type: physicochemical; conditions: administered solution in distilled water, concentration not given
# Procedure: The neuropsychopharmacological study was undertaken according to the procedures described above for CRL 41 153, CRL 41 213 being adminstered intraperitoneally, in solution in distilled water, in a volume of 20 ml/kg to male mice and a volume of 5 ml/kg to male rats, and the pH of the injected solution varying with the concentration of CRL 41 213 according to the data given in Table II below.
# [19] = system: mice; assay: Interaction with reserpine; assay type: in vivo, mouse; conditions: i.p.
# Procedure: Four hours after the intraperitoneal injection of 2.5 mg/kg of reserpine, groups of 6 mice receive CRL 41 153.
structure (smiles),measurement,setting,value
"CC(C)NC(C)C(=O)c1ccc(N)cc1 (centres unmarked) [CRL 41 153, 1-(4-aminophenyl)-2-isopropylaminopropanone dihydrochloride]",Effect on hypothermic action of oxotremorine,[1],"at doses of 2 mg/kg, 8 mg/kg and 32 mg/kg, CRL 41 153 opposes the hypothermic action of oxotremorine"
same,Effect on trembling induced by oxotremorine,[1],"at doses of 8 mg/kg and 32 mg/kg, CRL 41 153 partially antagonizes the trembling induced by oxotremorine"
same,Action on the peripheral cholinergic symptoms,[1]; oxotremorine,moderate α-adrenergic stimulant effect
same,Hypothermia induced by apomorphine,[2]; gastric,antagonism of the hypothermia induced by apomorphine
same,Motility,[2]; gastric,hypermotility
same,Sleep induced by barbital,[2]; gastric,reduction in the sleep induced by barbital
same,Action on gastric (oral) administration compared with intraperitoneal,"[2]; gastric vs i.p., dihydrochloride",very active substance; also recorded: same types of action on gastric administration as after intraperitoneal administration
same,minimal effective dose,"[2]; po, gastric, read-out: Dose as from which antidepressant and stimulant and/or arousing effects appear",≥ 4 mg/kg
same,Effect of alpha-methyltyrosine on the stereotypies induced by the substance,[3],only reduces them
same,Effect on convulsant effects of electric shock,[4],"at high doses, CRL 41 153 antagonizes the convulsant effects of electric shock"
same,Observed symptoms,[5]; 0.25 mg/kg,no particular symptoms
same,Observed symptoms,[5]; 1 mg/kg,"mydriasis for 1 hour, reaching its maximum value 1 hour after administration"
same,Hyperthermia (maximum temperature change),"[5]; 4 mg/kg, 0.5 hour after administration",+1.9 °C
same,Observed symptoms,"[5]; 4 mg/kg, dihydrochloride","excitation 0.5 hour after administration and stereotypies for 2 hours; also recorded: hyperthermia for 3 hours; also recorded: mydriasis for 2 hours, reaching its maximum value 0.5 hour after administration"
same,Observed symptoms,"[5]; 16 mg/kg, dihydrochloride","excitation 0.5 hour after administration; also recorded: stereotypies for 3 hours; also recorded: an increase in the fear reaction for 3 hours; also recorded: mydriasis for 3 hours, at a maximum 0.5 hour after administration"
same,Motor activity of mice accustomed to their enclosure,[6],causes a distinct resumption in the motor activity of mice accustomed to their enclosure
same,Observed symptoms,[7]; 0.5 mg/kg,no particular symptoms
same,Observed symptoms,"[7]; 2 mg/kg, dihydrochloride",excitation of low intensity 0.5 hour after administration; also recorded: stereotypies for 1 hour; also recorded: an increase in the fear reaction (for 1 hour) and in the reactivity to touch (2 to 3 hours after administration)
same,Observed symptoms,"[7]; 8 mg/kg, dihydrochloride",excitation for 3 hours; also recorded: an increase in the fear reaction (for 3 hours) and in the reactivity to touch (for 24 hours)
same,Hyperthermia (temperature change),"[7]; 32 mg/kg, 0.5 hour after administration",+1.1 °C
same,Observed symptoms,"[7]; 32 mg/kg, dihydrochloride",excitation and stereotypies for 3 hours; also recorded: an increase in the fear reaction (for 2 hours) and in the reactivity to touch (for 24 hours); also recorded: moderate mydriasis
same,Time taken for convulsions to occur,[8],"at a dose of 32 mg/kg, CRL 41 153 reduces the time taken for convulsions to occur"
same,Time taken for death to occur,[8],does not change the time taken for death to occur
same,Anticonvulsant effects (overall),[9]; conclusion of the tests,anticonvulsant effects: at a high dose
same,Antidepressant effects (overall),[9]; conclusion of the tests,behaves as an antidepressant for the CNS
same,Stimulant effects (overall),[9]; conclusion of the tests,distinct stimulant component
same,α-adrenergic stimulant effects (overall),[9]; conclusion of the tests,peripheral α-adrenergic stimulant effects
same,"Peripheral α-adrenergic signs (mydriasis, salivation, lacrimation, exophthalmos)",[9]; species and dose not stated,mydriasis (with neither piloerection nor salivation)
same,LD0 (maximum non-lethal dose),[10],greater than 64 mg/kg
same,LD60,[10],about 128 mg/kg
same,Spontaneous motor activity,[11],increases the spontaneous motor activity of mice
same,Effect on stereotypies induced by apomorphine,[12],"as from a dose of 0.5 mg/kg, CRL 41 153 potentiates the stereotypies induced by apomorphine"
same,Effect on stereotypies induced by amphetamine,[13],"at doses of 1 mg/kg. 4 mg/kg and 16 mg/kg, CRL 41 153 potentiates the intensity and duration of the stereotypies induced by amphetamine"
same,Effect on hypothermia induced by apomorphine,[14],"at doses of 2 mg/kg, 8 mg/kg and 32 mg/kg, CRL 41 153 (which is hyperthermic at the said doses) opposes the hypothermia induced by apomorphine"
same,Effect on righting behavior and stereotypies induced by apomorphine,[14],without modifying the righting behavior and stereotypy behavior
same,Motor recovery of mice after hypobaric hypoxia,[15],"as from a dose of 0.5 mg/kg, CRL 41 153 causes a distinct improvement in the motor recovery"
same,Effect of propanolol or atenolol on the action of the product,[16],The increase in the femoral and vertebral flows is suppressed by propanolol
same,Effects of isoprenaline on the blood pressure,[16],does not modify the effects of isoprenaline on the blood pressure
same,Reflex bradycardia caused by hypertension,[16],The reflex bradycardia caused by hypertension is converted to tachycardia
same,α-adrenergic stimulant effect,[16],moderate α-adrenergic stimulant effect
same,Blood flow through the femoral artery,"[16]; oral, 2.5 to 5 mg/kg",increases the blood flow through the femoral artery
same,Blood flow through the vertebral artery,"[16]; oral, 2.5 to 5 mg/kg",increases the blood flow through the femoral artery and the blood flow through the vertebral artery at doses of 2.5 to 5 mg/kg
same,Duration of the sleep induced by barbital,[17],reduces the duration of the sleep induced by barbital (total antagonism is obtained at doses of 8 mg/kg and 32 mg/kg)
same,Time taken to fall asleep (barbital),[17],"at doses of 0.5 to 32 mg/kg, CRL 41 153 increases the time taken to fall asleep"
same,pH,[18],1.5
same,Effect on hypothermia induced by reserpine,[19],"as from a dose of 0.5 mg/kg, CRL 41 153 strongly opposes tbe hypothermia"
same,Effect on ptosis induced by reserpine,[19],"as from a dose of 0.5 mg/kg, CRL 41 153 strongly opposes tbe hypothermia and ptosis induced by reserpine"

# Source: patent publication US4980377A, “1-(aminophenyl)-2-aminopropanone derivatives” (Laboratoire L. Lafon, priority 1984, dated 1990)
